According to US5863913A, “Aromatic compound and pharmaceutical composition” (Kureha Chemical Industry Co., Ltd., priority 1996, dated 1999):

Experiments:
[1] = test system: kidney disease model rats; test: Action to lower blood pressure in kidney disease model rats (tail cuff); format: in vivo, Sprague-Dawley female rats; conditions: for Blood Pressure: systolic, average of 8 rats, 20 mg/kg with drinking water, two days after administration, control 210
Protocol: (§1) The compounds of the present invention and the reference substance were administered with drinking water to kidney disease model rats, and the action of lowering the blood pressure was observed. The kidney disease model rats were prepared by a ligature of branches of renal artery in accordance with a conventional method. Namely, the left hilum renalis of Sprague-Dawley female rats was exposed under anesthesia, and one of four secondary branches of the renal artery was left unligated, while the remaining three branches were ligated, respectively. After a week, the hilum renalis (artery, vein, and ureter) of the right kidney were further ligated to thereby prepare rats whose renal function was lowered to approximately 1/8 of the normal function. Each group consisted of eight rats. The drugs to be tested (20 mg/kg) were administered to each administering group, and only water was administered to a control group. Two days after the administration, the systolic blood pressure was measured by the tail cuff method using a blood pressure measuring apparatus (UR5000; Ueda).

[2] = target: T1, angiotensin II receptor subtype 2 (AT2) (Bos taurus, UniProt G5E6F7); test: Binding to receptors: angiotensin II receptor subtype 2 (AT2); conditions: bovine cerebellar cortex, tracer 125I-Tyr4-angiotensin II
T1 construct: receptor : from cerebellar cortex in bovine; from tissue; host or cells: bovine cerebellar cortex
T1 sequence (G5E6F7 1-362): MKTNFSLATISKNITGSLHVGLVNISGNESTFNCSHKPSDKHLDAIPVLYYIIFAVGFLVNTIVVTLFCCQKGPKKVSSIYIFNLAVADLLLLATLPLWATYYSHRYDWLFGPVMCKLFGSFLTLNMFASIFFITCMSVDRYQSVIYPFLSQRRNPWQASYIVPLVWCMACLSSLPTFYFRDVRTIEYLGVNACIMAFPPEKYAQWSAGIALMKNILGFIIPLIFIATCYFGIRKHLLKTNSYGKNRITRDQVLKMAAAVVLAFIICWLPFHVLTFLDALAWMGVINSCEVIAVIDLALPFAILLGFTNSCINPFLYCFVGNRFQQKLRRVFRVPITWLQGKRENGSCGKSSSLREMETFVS
Protocol: (§2) In this Example, the affinity to the angiotensin II receptor subtype 1 or subtype 2 was evaluated by a binding assay in accordance with the method described in Biochem. Pharmacol., 33, 4057-4062 (1984).
(§3) Specifically, the measurement of the total binding in the presence of each drug was performed as follows:
(§4) A mixture (final volume=0.25 ml) of a drug in a given concentration (the drug was dissolved in DMSO, and diluted to a double volume with a buffer attached to a drug discovery system to prepare a sample for the assay; 0.025 ml), a tracer (0.025 ml), and receptors (0.2 ml) was incubated [in the case of the angiotensin II receptor subtype 1 (AT1), at room temperature for 3 hours, and in the case of the subtype 2 (AT2), at 37° C. for 1 hour]. Then, the reaction mixture was filtered with suction (GF/C filter was used in AT1, and GF/B filter was used in AT2). The filter papers after filtration with suction (the tracer bound to the receptors) were counted by a γ-well counter (ARC-500, Aloka). The non-specific bindings were measured by repeating the above method, except that a large excess amount of a displacer was added. The specific binding of the drug in the given concentration was calculated by subtracting the non-specific binding from the total binding, respectively.
In AT1 and AT2, the percentages found to inhibit the bindings of radioactive ligands (tracer) to receptors by the drugs to be tested (IC50 value of concentration to show 50% inhibition, or binding inhibition % in 100 μM) were measured, using the drugs to be tested and control drugs in the given concentration.
receptor : from cerebellar cortex in bovine
tracer : ^125 ITyr^4angiotensin II
control drug : angiotensin II (human)
(displacer) : angiotensin II (human)

[3] = target: T2, angiotensin II receptor subtype 1 (AT1) (Oryctolagus cuniculus, UniProt P34976); test: Binding to receptors: angiotensin II receptor subtype 1 (AT1); set-up: species or system rabbits (adrenal glands); conditions: rabbit adrenal glands, tracer 3H-angiotensin II
T2 construct: receptor : from adrenal glands in rabbits; from tissue; host or cells: rabbit adrenal glands
T2 sequence (P34976 1-359): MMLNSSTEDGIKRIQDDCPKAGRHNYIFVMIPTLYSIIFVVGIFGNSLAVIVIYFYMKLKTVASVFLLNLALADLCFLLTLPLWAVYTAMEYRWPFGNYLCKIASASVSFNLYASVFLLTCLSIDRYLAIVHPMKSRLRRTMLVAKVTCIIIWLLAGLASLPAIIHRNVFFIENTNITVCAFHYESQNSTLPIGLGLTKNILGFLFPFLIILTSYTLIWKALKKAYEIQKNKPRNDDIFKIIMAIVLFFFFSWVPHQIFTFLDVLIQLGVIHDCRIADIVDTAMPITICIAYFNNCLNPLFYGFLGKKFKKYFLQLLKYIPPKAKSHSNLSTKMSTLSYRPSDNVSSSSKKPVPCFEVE
Protocol: as §2, §3, §4
receptor : from adrenal glands in rabbits
tracer : ^3 Hangiotensin II

[4] = test system: ICR female mice; test: Acute toxicity, single oral dose in mice; conditions: mouse, in vivo
Protocol: The aromatic compounds of the formula (I) according to the present invention were orally administered to mice at the dose of 500 mg/kg, but no fatalities were observed over a period of one week.
Five-week-old ICR female mice (5 mice per group) were bred for acclimation for a week. Then, the compounds of the present invention were dissolved in water, and orally administered to the mice in a single dosage (500 mg/kg).

[5] = test system: kidney disease model rats; test: Renal function indicatory value in kidney disease model rats; format: in vivo, Sprague-Dawley female rats; conditions: 20 mg/kg/day with drinking water, six weeks; for Creatinine clearance: 24 hours urine, control 0.22; for Creatinine / Blood urea nitrogen: serum; for Creatinine: control 2.0; for Blood urea nitrogen: control 100
Protocol: as §1, with “The” for “The compounds of the present invention and the reference substance were administered with drinking water to kidney disease model rats, and the action of lowering the blood pressure was observed. The”
The rats in each group were allowed to freely take up food. […] To the rats in the control group, only water was administered every day. After six weeks, 0.2 ml of blood was collected from the carotid artery of the rats under anesthesia, and centrifuged to obtain serum. Using 25 μl of the serum, the serum creatinine (Scr) was measured by a creatinine analytical instrument (Beckman). Using 10 μl of the serum, the blood urea nitrogen (BUN) was measured by a BUN analytical instrument (Beckman). The creatinine clearance was evaluated as follows:
After the serum creatinine measurement, rats were placed in urinary metabolic cages for 24 hours to collect urine. A urinary creatine concentration (Ucr) was measured by a creatinine analytical instrument, and a total volume of urination (Uvol) was also measured. The creatinine clearance (CCr) was calculated by the following formula: [formula]

[6] = test system: kidney disease model rats; test: Survival time of kidney diseased animals; format: in vivo, Sprague-Dawley female rats; conditions: 20 mg/kg/day with drinking water, observation period eight weeks (upper limit); control 5.0
Protocol: as §1
The kidney disease model rats were prepared as in Example 54. Twenty-two groups (8 rats per group) were prepared in a manner such that there was no major difference between the groups in the serum creatinine value and the blood urea nitrogen value indicating renal function. The rats in each group were allowed to freely take up food. […] To the rats in the control group, only water was administered every day. If kidney diseases are aggravated, the rat will die of uremia. Thus, the survival time was observed as a comprehensive indication of the improvement of the effect on the kidney diseases. The observation period was eight weeks. Thus if all rats survived, the average survival time is eight weeks, and is an upper limit.

Structure (SMILES)	Blood Pressure [1]	inhibition at 100 µM [2]	inhibition at 100 µM [3]	Number of deaths/number of survivals [4]	Creatinine clearance [5]	Creatinine [5]	Blood urea nitrogen [5]	Average survival time [6]	action of lowering the blood pressure ([1]; result in words, in comparison with the control group)
CCCCCCCC(=O)N(Cc1ccc(C(=O)O)cc1)c1cc(C(=O)N2CCN(C)CC2)ccc1N(C)C [Compound No. 14, 3-[[(4-carboxyphenyl)methyl]n-octanamido]-4-dimethylaminobenzoic acid 4'-methylpiperazide]	205 mmHg	0%	0%	0/5	0.27 mL/min	1.7 mg/dL	86 mg/dL	6.3 weeks	–
CCCCC(=O)N(Cc1ccc(C(=O)O)cc1)c1cc(C(=O)N(CC)CCN(CC)CC)ccc1C(C)C [Compound No. 17]	201 mmHg	23%	4%	0/5	0.33 mL/min	1.5 mg/dL	78 mg/dL	6.9 weeks	–
CCCCC(=O)N(Cc1ccc(C(=O)OCC)cc1)c1cc(C(=O)N2CCN(C)CC2)ccc1C(C)C [Compound No. 16, 3-[[(4-ethoxycarbonylphenyl)methyl]valeramido]-4-i-propylbenzoic acid 4'-methylpiperazide]	202 mmHg	0%	0%	0/5	0.33 mL/min	1.5 mg/dL	78 mg/dL	6.9 weeks	–
CCCCC(=O)N(Cc1ccc(C(=O)OC2CNC(C(=O)OCC)C2)cc1)c1cc(C(=O)N2CCOCC2)ccc1N(C)C (stereo not drawn) [Compound No. 5, 4-dimethylamino-3-N-[[[[4-(2'-ethoxycarbonylpyrrolidin-4'-yloxy)carbonyl]phenyl]methyl]valeramido]benzoic acid morpholide]	200 mmHg	0%	11%	0/5	0.30 mL/min	1.6 mg/dL	82 mg/dL	6.9 weeks	–
CCCCC(=O)N(Cc1ccc(C(=O)O)cc1)c1cc(C(=O)N2CCN(C)CC2)ccc1N(C)C [Compound No. 10, 3-[[(4-carboxyohenyl)methyl]valeramido]-4-dimethylaminobenzoic acid 4'-methylpiperazide]	206 mmHg	0%	13%	0/5	0.32 mL/min	1.6 mg/dL	81 mg/dL	6.9 weeks	–
CCCCc1nc(Cl)c(CO)n1Cc1ccc(-c2ccccc2-c2nn[nH]n2)cc1 [DuP753, reference compound]	130 mmHg	–	–	–	0.32 mL/min	1.6 mg/dL	80 mg/dL	6.9 weeks	clearly exhibited the action of lowering the blood pressure
CCCCC(=O)N(Cc1ccc(C(=O)OCC(N)C(=O)OCC)cc1)c1cc(C(=O)N2CCOCC2)ccc1N(C)C (stereo not drawn) [Compound No. 4, 3-N-[[[[4-(2'-amino-2'-ethoxycarbonyl)ethoxycarbonyl]phenyl]methyl]valeramido]-4-dimethyl aminobenzoic acid morpholide]	204 mmHg	0%	11%	0/5	0.37 mL/min	1.4 mg/dL	72 mg/dL	6.9 weeks	–
